#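 Results reflect a 48-hour exposure of cells in 96-well plates to compound at five concentrations. At the GI50, growth is halved.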 Activity calls are given as the source filed them. Cut-off read from the data, not from the text of the source: active = GI50 up to about 1.1 µM and inactive = higher.
# What was measured:
# Test in all cases: NCI anticancer screen, dose series, 48 h
# NCI-H460 = system: NCI-H460
# SK-MEL-2 = system: SK-MEL-2
# NCI-H226 = system: NCI-H226
# HCT-116 = system: HCT-116
# UACC-257 = system: UACC-257
# SK-MEL-28 = system: SK-MEL-28
# LXFL 529 = system: LXFL 529
# TK-10 = system: TK-10
# NCI-H23 = system: NCI-H23
# NCI-H522 = system: NCI-H522
# OVCAR-5 = system: OVCAR-5
# HL-60 = system: HL-60
# SW-620 = system: SW-620
# SNB-75 = system: SNB-75
# SF-539 = system: SF-539
# Malme-3M = system: Malme-3M
# K562 = system: K562
# OVCAR-3 = system: OVCAR-3
# 786-0 = system: 786-0
# SN12C = system: SN12C
# ACHN = system: ACHN
# RPMI-8226 = system: RPMI-8226
# IGROV-1 = system: IGROV-1
# SK-MEL-5 = system: SK-MEL-5
# HT-29 = system: HT-29
# COLO 205 = system: COLO 205
# SF-295 = system: SF-295
# EKVX = system: EKVX
# SNB-78 = system: SNB-78
# DMS-273 = system: DMS-273
# HOP-92 = system: HOP-92
# UO-31 = system: UO-31
# HCC 2998 = system: HCC 2998
# KM12 = system: KM12
# HOP-18 = system: HOP-18
# M14 = system: M14
# LOX IMVI = system: LOX IMVI
# UACC-62 = system: UACC-62
# OVCAR-8 = system: OVCAR-8
# XF498 = system: XF498
# SR = system: SR
# HCT-15 = system: HCT-15
# RXF 393 = system: RXF 393
# MOLT-4 = system: MOLT-4
# M19-MEL = system: M19-MEL
# SNB-19 = system: SNB-19
# SK-OV-3 = system: SK-OV-3
# SF-268 = system: SF-268
# KM-20L2 = system: KM-20L2
# DMS-114 = system: DMS-114
# CCRF-CEM = system: CCRF-CEM
# U-251 = system: U-251
# DLD-1 = system: DLD-1
# A549 = system: A549
# A498 = system: A498
# HOP-62 = system: HOP-62
# CAKI-1 = system: CAKI-1
# OVCAR-4 = system: OVCAR-4
smiles,measurement,setting,value
COC1(OC)c2ccccc2C2(O)c3ccccc3C(=O)C12 (centres undefined),GI50,NCI-H460,26.4 µM (inactive)
same,GI50,SK-MEL-2,38.1 µM (inactive)
same,GI50,NCI-H226,27 µM (inactive)
same,GI50,HCT-116,70.8 µM (inactive)
same,GI50,UACC-257,17.9 µM (inactive)
same,GI50,SK-MEL-28,> 100 µM (inactive)
same,GI50,LXFL 529,20.7 µM (inactive)
same,GI50,TK-10,37.3 µM (inactive)
same,GI50,NCI-H23,47.4 µM (inactive)
same,GI50,NCI-H522,10.2 µM (inactive)
same,GI50,OVCAR-5,> 100 µM (inactive)
same,GI50,HL-60,13.5 µM (inactive)
same,GI50,SW-620,71 µM (inactive)
same,GI50,SNB-75,29.3 µM (inactive)
same,GI50,SF-539,61 µM (inactive)
same,GI50,Malme-3M,38 µM (inactive)
same,GI50,K562,12.6 µM (inactive)
same,GI50,OVCAR-3,28.8 µM (inactive)
same,GI50,786-0,52.6 µM (inactive)
same,GI50,SN12C,60.8 µM (inactive)
same,GI50,ACHN,34.1 µM (inactive)
same,GI50,RPMI-8226,5.79 µM (inactive)
same,GI50,IGROV-1,18.2 µM (inactive)
same,GI50,SK-MEL-5,9.16 µM (inactive)
same,GI50,HT-29,55.5 µM (inactive)
same,GI50,COLO 205,13.4 µM (inactive)
same,GI50,SF-295,54 µM (inactive)
same,GI50,EKVX,48.8 µM (inactive)
same,GI50,SNB-78,64.4 µM (inactive)
same,GI50,DMS-273,25.2 µM (inactive)
same,GI50,HOP-92,46.6 µM (inactive)
same,GI50,UO-31,16.4 µM (inactive)
same,GI50,HCC 2998,57.1 µM (inactive)
same,GI50,KM12,39.9 µM (inactive)
same,GI50,HOP-18,52 µM (inactive)
same,GI50,M14,23.9 µM (inactive)
same,GI50,LOX IMVI,44.7 µM (inactive)
same,GI50,UACC-62,13.6 µM (inactive)
same,GI50,OVCAR-8,39.4 µM (inactive)
same,GI50,XF498,17.8 µM (inactive)
same,GI50,SR,22.9 µM (inactive)
same,GI50,HCT-15,25.3 µM
same,GI50,RXF 393,> 100 µM (inactive)
same,GI50,MOLT-4,10.9 µM (inactive)
same,GI50,M19-MEL,34.7 µM (inactive)
same,GI50,SNB-19,74.5 µM (inactive)
same,GI50,SK-OV-3,70.1 µM (inactive)
same,GI50,SF-268,> 100 µM (inactive)
same,GI50,KM-20L2,40.6 µM (inactive)
same,GI50,DMS-114,35.6 µM (inactive)
same,GI50,CCRF-CEM,22.5 µM (inactive)
same,GI50,U-251,43 µM (inactive)
CCN(C(C)=N)c1ccccc1,GI50,NCI-H460,> 100 µM (inactive)
same,GI50,DLD-1,> 100 µM (inactive)
same,GI50,SK-MEL-2,> 100 µM (inactive)
same,GI50,NCI-H226,56.8 µM (inactive)
same,GI50,HCT-116,48.9 µM (inactive)
same,GI50,UACC-257,17.2 µM (inactive)
same,GI50,SK-MEL-28,68.4 µM (inactive)
same,GI50,LXFL 529,75.9 µM (inactive)
same,GI50,TK-10,> 100 µM (inactive)
same,GI50,NCI-H23,54.8 µM (inactive)
same,GI50,NCI-H522,50.2 µM (inactive)
same,GI50,OVCAR-5,> 100 µM (inactive)
same,GI50,HL-60,32.8 µM (inactive)
same,GI50,SW-620,> 100 µM (inactive)
same,GI50,SNB-75,37.5 µM (inactive)
same,GI50,A549,> 100 µM (inactive)
same,GI50,SF-539,> 100 µM (inactive)
same,GI50,Malme-3M,> 100 µM (inactive)
same,GI50,K562,43.6 µM (inactive)
same,GI50,OVCAR-3,> 100 µM (inactive)
same,GI50,786-0,> 100 µM (inactive)
same,GI50,SN12C,70 µM (inactive)
same,GI50,ACHN,61.5 µM (inactive)
same,GI50,RPMI-8226,27 µM (inactive)
same,GI50,A498,37.5 µM (inactive)
same,GI50,IGROV-1,> 100 µM (inactive)
same,GI50,SK-MEL-5,35.1 µM (inactive)
same,GI50,COLO 205,> 100 µM (inactive)
same,GI50,SF-295,43.5 µM (inactive)
same,GI50,HOP-62,66.4 µM (inactive)
same,GI50,CAKI-1,95.1 µM (inactive)
same,GI50,EKVX,52.8 µM (inactive)
same,GI50,SNB-78,> 100 µM (inactive)
same,GI50,HOP-92,60.4 µM (inactive)
same,GI50,UO-31,39 µM (inactive)
same,GI50,HCC 2998,> 100 µM (inactive)
same,GI50,KM12,> 100 µM (inactive)
same,GI50,HOP-18,> 100 µM (inactive)
same,GI50,M14,> 100 µM (inactive)
same,GI50,LOX IMVI,> 100 µM (inactive)
same,GI50,UACC-62,> 100 µM (inactive)
same,GI50,OVCAR-8,> 100 µM (inactive)
same,GI50,XF498,> 100 µM (inactive)
same,GI50,HCT-15,> 100 µM
same,GI50,RXF 393,> 100 µM (inactive)
same,GI50,MOLT-4,72.6 µM (inactive)
same,GI50,M19-MEL,95.5 µM (inactive)
same,GI50,SNB-19,78.7 µM (inactive)
same,GI50,SK-OV-3,> 100 µM (inactive)
same,GI50,SF-268,> 100 µM (inactive)
same,GI50,KM-20L2,> 100 µM (inactive)
same,GI50,DMS-114,36.5 µM (inactive)
same,GI50,CCRF-CEM,> 100 µM (inactive)
same,GI50,OVCAR-4,66.8 µM (inactive)
same,GI50,U-251,> 100 µM (inactive)
S=C1ON=C(c2ccccc2)/C1=C/Nc1ccccc1,GI50,NCI-H460,> 100 µM (inactive)
same,GI50,DLD-1,37.2 µM (inactive)
same,GI50,SK-MEL-2,> 100 µM (inactive)
same,GI50,UACC-257,> 100 µM (inactive)
same,GI50,SK-MEL-28,> 100 µM (inactive)
same,GI50,LXFL 529,> 100 µM (inactive)
same,GI50,TK-10,> 100 µM (inactive)
same,GI50,NCI-H23,> 100 µM (inactive)
same,GI50,NCI-H522,> 100 µM (inactive)
same,GI50,OVCAR-5,> 100 µM (inactive)
same,GI50,HL-60,> 100 µM (inactive)
same,GI50,SW-620,> 100 µM (inactive)
same,GI50,SNB-75,> 100 µM (inactive)
same,GI50,A549,> 100 µM (inactive)
same,GI50,SF-539,97.7 µM (inactive)
same,GI50,Malme-3M,77.1 µM (inactive)
same,GI50,K562,9.98 µM (inactive)
same,GI50,786-0,> 100 µM (inactive)
same,GI50,SN12C,> 100 µM (inactive)
same,GI50,ACHN,47.1 µM (inactive)
same,GI50,RPMI-8226,> 100 µM (inactive)
same,GI50,A498,5.69 µM (inactive)
same,GI50,IGROV-1,> 100 µM (inactive)
same,GI50,SK-MEL-5,> 100 µM (inactive)
same,GI50,HT-29,> 100 µM (inactive)
same,GI50,COLO 205,> 100 µM (inactive)
same,GI50,SF-295,> 100 µM (inactive)
same,GI50,CAKI-1,> 100 µM (inactive)
same,GI50,EKVX,> 100 µM (inactive)
same,GI50,SNB-78,> 100 µM (inactive)
same,GI50,DMS-273,> 100 µM (inactive)
same,GI50,UO-31,> 100 µM (inactive)
same,GI50,HCC 2998,> 100 µM (inactive)
same,GI50,KM12,23.2 µM (inactive)
same,GI50,HOP-18,< 0.01 µM (active)
same,GI50,M14,> 100 µM (inactive)
same,GI50,LOX IMVI,> 100 µM (inactive)
same,GI50,UACC-62,3.24 µM (inactive)
same,GI50,OVCAR-8,> 100 µM (inactive)
same,GI50,XF498,> 100 µM (inactive)
same,GI50,HCT-15,78.9 µM
same,GI50,RXF 393,94.8 µM (inactive)
same,GI50,MOLT-4,> 100 µM (inactive)
same,GI50,SNB-19,> 100 µM (inactive)
same,GI50,SK-OV-3,> 100 µM (inactive)
same,GI50,SF-268,> 100 µM (inactive)
same,GI50,DMS-114,> 100 µM (inactive)
same,GI50,CCRF-CEM,> 100 µM (inactive)
same,GI50,OVCAR-4,9.62 µM (inactive)
same,GI50,U-251,> 100 µM (inactive)
CCOc1ccc(C(C)c2cc3c(cc2OC)OCO3)cc1 (centres undefined),GI50,NCI-H460,0.34 µM (active)
same,GI50,DLD-1,0.377 µM (active)
same,GI50,NCI-H226,0.207 µM (active)
same,GI50,HCT-116,0.371 µM (active)
same,GI50,UACC-257,0.767 µM (active)
same,GI50,LXFL 529,0.429 µM (active)
same,GI50,TK-10,0.353 µM (active)
same,GI50,NCI-H23,0.267 µM (active)
same,GI50,NCI-H522,0.0316 µM (active)
same,GI50,OVCAR-5,65.5 µM (inactive)
same,GI50,SW-620,0.259 µM (active)
same,GI50,SNB-75,0.277 µM (active)
same,GI50,A549,0.455 µM (active)
same,GI50,SF-539,0.271 µM (active)
same,GI50,Malme-3M,0.457 µM (active)
same,GI50,OVCAR-3,0.221 µM (active)
same,GI50,SN12C,0.484 µM (active)
same,GI50,ACHN,0.897 µM (active)
same,GI50,RPMI-8226,0.427 µM (active)
same,GI50,IGROV-1,2.75 µM (inactive)
same,GI50,SK-MEL-5,0.269 µM (active)
same,GI50,HT-29,0.237 µM (active)
same,GI50,SF-295,0.0828 µM (active)
same,GI50,HOP-62,0.323 µM (active)
same,GI50,CAKI-1,0.834 µM (active)
same,GI50,SNB-78,3.2 µM (inactive)
same,GI50,DMS-273,0.245 µM (active)
same,GI50,HOP-92,0.855 µM (active)
same,GI50,UO-31,0.491 µM (active)
same,GI50,HCC 2998,0.466 µM (active)
same,GI50,HOP-18,2.2 µM (inactive)
same,GI50,M14,0.361 µM (active)
same,GI50,LOX IMVI,0.259 µM (active)
same,GI50,UACC-62,0.376 µM (active)
same,GI50,OVCAR-8,0.424 µM (active)
same,GI50,XF498,0.256 µM (active)
same,GI50,SR,0.0982 µM (active)
same,GI50,HCT-15,0.299 µM
same,GI50,RXF 393,0.222 µM (active)
same,GI50,MOLT-4,0.396 µM (active)
same,GI50,SNB-19,0.561 µM (active)
same,GI50,SK-OV-3,0.32 µM (active)
same,GI50,SF-268,1.05 µM (active)
same,GI50,KM-20L2,0.199 µM (active)
same,GI50,DMS-114,0.214 µM (active)
same,GI50,OVCAR-4,> 100 µM (inactive)
same,GI50,U-251,0.38 µM (active)
